Measured values from article PMC9520760 (ACS Omega, 2022).

Legend:
HEK-293 cells = experiment: MTT toxicity in normal cell line HEK-293; assay type: cell-based; conditions: Homo sapiens, HEK293, 48 h, read-out: IC50 (Mean ± SEM) HEK-293
MDA-MB-231 cells = experiment: MTT cell proliferation assay, MDA-MB-231; assay type: cell-based, human; conditions: for IC50: Homo sapiens, MDA-MB-231, 48 h, read-out: IC50 (Mean ± SEM) MDA-MB-231; for antiproliferative activity against MDA-MB-231: MTT assay
PC-3 cells = experiment: MTT cell proliferation assay, PC-3; assay type: cell-based; conditions: Homo sapiens, PC-3, 48 h, read-out: IC50 (Mean ± SEM) PC-3
Ishikawa cell line = experiment: MTT cell proliferation assay, Ishikawa; assay type: cell-based, human; conditions: for IC50: Homo sapiens, Ishikawa, 48 h, read-out: IC50 (Mean ± SEM) Ishikawa
HeLa cells = experiment: MTT cell proliferation assay, HeLa; assay type: cell-based, human; conditions: for IC50: Homo sapiens, HeLa, 48 h, read-out: IC50 (Mean ± SEM) HeLa; for antiproliferative activity against HeLa: MTT assay
[1] = test system: various cancer cell lines; experiment: MTT assay, panel of cancer cell lines; assay type: cell-based; conditions: Homo sapiens, read-out: IC50 against various cancer cell lines
MCF-7 cells = experiment: MTT cell proliferation assay, MCF-7; assay type: cell-based, human; conditions: for IC50: Homo sapiens, MCF7, 48 h, read-out: IC50 (Mean ± SEM) MCF-7; for antiproliferative activity against MCF-7: MTT assay

| Structure (SMILES) | IC50 (HEK-293 cells) [µM] | IC50 (MDA-MB-231 cells) [µM] | antiproliferative activity against MDA-MB-231 (MDA-MB-231 cells) | IC50 (PC-3 cells) [µM] | IC50 (Ishikawa cell line) [µM] | antiproliferative activity against Ishikawa (Ishikawa cell line; MTT assay) | IC50 (HeLa cells) [µM] | antiproliferative activity against HeLa (HeLa cells) | IC50 [1] [µM] | IC50 (MCF-7 cells) [µM] | antiproliferative activity against MCF-7 (MCF-7 cells) |
| --- | --- | --- | --- | --- | --- | --- | --- | --- | --- | --- | --- |
| Cc1nn(-c2ccccc2)c(O)c1C(c1ccc(Cl)cc1)c1c(C)nn(-c2ccccc2)c1O [3c] | > 40 | 22.4 ± 1.34 | mild inhibition | > 40 | 36.9 ± 1.38 | weak antiproliferative activity | 32.4 ± 1.62 | weak antiproliferative activity | 5.45 to 18.3 | 16.3 ± 0.62 | good inhibition |
| Cc1nn(-c2ccccc2)c(O)c1C(c1ccccc1)c1c(C)nn(-c2ccccc2)c1O [3a] | > 40 | 30.8 ± 1.49 | weak inhibition | > 40 | 30.2 ± 2.12 |  | 30.7 ± 1.38 | weak inhibition |  | 35.1 ± 1.38 | weak inhibition |
